From US8461085B2, “Bioherbicide from Festuca spp” (Cornell Research Foundation, Inc., priority 2005, dated 2013)
“Also recorded” adds a separate entry of the source.

What was measured:
[1] = test system: Arabidopsis thaliana seedlings; assay: Arabidopsis root growth inhibition in growth media; format: in vivo; settings: for relative toxicity of the D, L and DL forms: Arabidopsis thaliana seedlings
[2] = test system: lettuce seedlings (Lactuca sativa L.); assay: Petri-dish bioassay, radicle elongation in lettuce seedlings; format: in vivo; settings: lettuce seedlings

| Structure (SMILES) | toxicity of the three forms at 40 μM [1] | relative toxicity of the D, L and DL forms [1] | other results |
| --- | --- | --- | --- |
| N[C@H](Cc1cccc(O)c1)C(=O)O [D-m-tyrosine] | same level of toxicity | less toxic at low concentrations |  |
| NC(Cc1cccc(O)c1)C(=O)O (stereo not drawn) [DL m-tyrosine] | same level of toxicity | roughly equal toxicity |  |
| N[C@@H](Cc1cccc(O)c1)C(=O)O [L-m-tyrosine, L-3′-hydroxyphenylalanine] | same level of toxicity | roughly equal toxicity |  |
| O=C(O)C(=O)Cc1cccc(O)c1 [m-hydroxyphenylpyruvic acid] |  |  | toxicity compared with m-tyrosine ([1]; Arabidopsis root growth): as toxic as m-tyrosine; root growth of Arabidopsis when phenylalanine is added to the media ([1]; in vivo): not rescued |
| N[C@@H](Cc1ccccc1O)C(=O)O [o-tyrosine, 2′-hydroxyphenylalanine] |  |  | phytotoxicity [2]: no toxicity; also recorded: not phytotoxic; also recorded: devoid of herbicidal activity |
| N[C@@H](Cc1ccc(O)cc1)C(=O)O [p-tyrosine, tyrosine] |  |  | phytotoxicity [2]: no toxicity; also recorded: not phytotoxic; rescue of root growth inhibition initiated by 3 μM of m-tyrosine ([1]; concentrations up to 1 mM): did not rescue |
| N[C@@H](Cc1ccccc1)C(=O)O [phenylalanine, reference compound] |  |  | root growth restored by addition of phenylalanine ([1]; root growth inhibition initiated by m-tyrosine): 80 % of the control levels |
